Test system: LZ+HFD-induced PCOS model
Experiment: Pharmacodynamic experiment of mulberry extract on LZ+HFD-induced PCOS model (Experimental Example 11, incl. expanded scale)
Format: in vivo, SD rats
Details: Met. 125 mg/kg/d, expanded scale 18 rats/group, monitored 10 days from day 10 of treatment; model group 97%, blank about 59%
Method: Test methods for the hormones are as follows: • E2: estradiol radioimmunoassay KIT—HTA Co., Ltd. (SFDA approval No.: 520033010); • LH: Iodine[^125I] Human Luteinizing Hormone Radioimmunoassay Kit (SFDA approval No.: 510950161); • PRL: Iodine[^125I] Prolactin Radioimmunoassay Kit (SFDA approval No.: S10950161); • T: Iodine[^125I] Testosterone Radioimmunoassay Kit (SFDA approval No.: S10940093); • ADP, GnRH, SHBG, and AMH in serum of each animal were tested using Elisa kits; • P: Progesterone Radioimmunoassay Kit—Union Medical & Pharmaceutical Technology (Tianjin) Co., Ltd. (SFDA approval No.: S10950202).
The drugs were formulated as same as in Experimental Example 10.
Eighteen 3-week-old female SD rats with good health and shiny fur were selected and adaptively fed for 3 days, and then randomized into a blank group, a model group, and a dosing group. After fed with high-fat diets for 3 weeks, the rats in the model group and the dosing group were administered with LZ (1 mg/kg/d) via gavage for 6 weeks, while being fed with HFD (high-fat diets (research diets D12492)), and the PCOS rat models were constructed. After the models were evaluated as success, the rats in the dosing group were administered according to the dosage and mode listed in the table, during which an equal amount of normal saline was given to the blank group and the model group. […]

CN(C)C(=N)N=C(N)N [Met., Metformin] was tested, and the “share of diestrus/metestrus in the estrous cycle” value was 74%.
